Assays:
[1] = system: incision-induced mechanical allodynia in the rat hind paw; test: Mechanical allodynia (von Frey filaments) in postoperative pain model after paw incision; type: in vivo; conditions: for efficacy on mechanical allodynia (in words): dose-response curve
Method: Following plantar incision, rats show decreases in response thresholds graded von Frey filaments (mechanical hypersensitivity) (Brennan et al., Pain 1996, 64, 493).
Male, Wistar rats (120-160 g, Harlan, Italy) were housed in a climate-controlled room for at least 5 days prior to testing. Food and water were available ad libitum up to test time.
The dosing volume was 10 ml/kg. The antiallodynic response of the animal was subsequently evaluated 60 min after drug administration.
Rats were anaesthetized with 3% isofluorane for veterinary use, employing an Ohmeda vaporizer and an anaesthesia chamber. Anaesthesia was kept during the surgical operation by a tube which directs the isoflurane vapours to the animal's snout. Once the rats were anaesthetised, they were laid down in a prone position and their right hindpaws were cleaned out with alcohol. Then, a 1 cm longitudinal incision was made with a number 23 scalpel, through skin and fascia of the plantar aspect of the paw, starting 0.5 cm from the proximal edge of the heel and extending toward the toes. Therefore, both superficial (skin) and deep (muscle) tissues and nerves were injured. Finally, the skin of the paw was stitched with a suturing stitch with breaded silk (3.0) and the wound was cleaned out with povidone.
The drugs were tested 4 hours after the surgery (plantar incision); 60 minutes after the administration of the product, one behavioural endpoint was evaluated: mechanical hypersensitivity or allodynia.
Mechanical allodynia was tested using von Frey filaments. Animals were placed in methacrylate cylinders on an elevated surface, with metallic mesh floor perforated in order to apply the filaments. After an acclimation period of about 30 minutes within the cylinders, both hindpaws were stimulated (the injured and the non-injured paw, serving the latter as control), starting with the lowest force filament (0.4 g) and reaching up to a 15 g filament. The animal's response to pain was manifested by the withdrawal of the paw as a consequence of the painful stimulus caused by a filament. The pressure (force in grams) threshold eliciting the withdrawal of the paw was recorded.
The method is based on the comparison of the effect of several doses of the combination at a determined ratio with respect to the effects achieved using different doses of each of the two agents. […] Where it is established that Zt<Zadd for a specific fixed-ratio, then that composition has a synergistic effect. The theoretical additive dose (Zadd) for the co-crystal was then calculated and compared with the experimental ED50 of the combination (Zt) as described in Tallarida, Drug synergism 2001, 298, 865-872 [10].

[2] = system: locomotor activity in mice; test: Locomotor activity in actimeter cages; conditions: CD-1 mice, 30 min after administration
Method: Male, CD-1 mice (14-18 g, Charles River) were housed in a climate-controlled room for at least 5 days prior to testing. Food and water were available ad libitum up to test time.
The dosing volume was 10 ml/kg.
Eight standard actimeter cages (Linton Instrumentation, Inc.) equipped with infrared beams for the detection of movement were used. After administering the compounds, the animals were returned to their homecages and then placed in the locomotor activity cages 30 min later. Moving time was measured during 30 min, with readings performed every 5 min.

[3] = Wistar rats, intraperitoneal, 4 hours after plantar incision, 60 min after administration

SMILES	inhibition of mechanical allodynia compared with each single drug at equivalent doses ([1]; Wistar rats, intraperitoneal, 60 min after administration)	efficacy on mechanical allodynia (in words) [1, 3]	isobolographic analysis of interaction (Zt vs Zadd) ([1]; molar ratio 1:1, experimental ED50 (Zt) vs theoretical Zadd, p>0.05 Student's t-test)	effect on locomotor activity (moving time) ([2]; intraperitoneal, 20, 40, 80 and 160 mg/kg, p>0.05)	maximum efficacy on mechanical allodynia ([1]; Wistar rats, intraperitoneal, 4 hours after plantar incision, 60 min after administration, ceiling effect)	effect on locomotor activity (moving time) ([2]; intraperitoneal, 80 mg/kg, p<0.001)	effect on locomotor activity (moving time) ([2]; intraperitoneal, doses lower than 80 mg/kg)	effect on locomotor activity (moving time) ([2]; intraperitoneal, 160 mg/kg, p<0.05 compared with vehicle)	effect on locomotor activity (moving time) ([2]; intraperitoneal, doses lower than 160 mg/kg)
COc1ccc(C(CN(C)C)C2(O)CCCCC2)cc1.Cc1ccc(-c2cc(C(F)(F)F)nn2-c2ccc(S(N)(=O)=O)cc2)cc1 (racemic) [Celecoxib—(rac)-venlafaxine co-crystal (1:1)]	superior benefit	full efficacy	additive interaction	did not show any significant side-effect					
COc1ccc(C(CN(C)C)C2(O)CCCCC2)cc1 (racemic) [Venlafaxine, (rac)-1-[2-dimethylamino-1-(4-methoxyphenyl)-ethyl]cyclohexanol]					58.40%	significant side-effects increasing	no statistically significant effects		
Cc1ccc(-c2cc(C(F)(F)F)nn2-c2ccc(S(N)(=O)=O)cc2)cc1 [Celecoxib, 4-[5-(4-methylphenyl)-3-(trifluoromethyl)pyrazol-1-yl]benzenesulfonamide]		full efficacy						significant side-effects decreasing	No effects
